± gives the expanded uncertainty stated by the source.
Assays:
[1] = xn = mol fraction of the nth substance listed; details: 102.24 kPa, Liquid, x2 = 0; for speed of sound: Frequency=5 MHz, Single path-length method; for mass density: Vibrating tube method
[2] = 102.24 kPa, Liquid, Frequency=5 MHz, Single path-length method

speed of sound ([1]; 313.15 K) [m/s] | mass density ([1]; 323.15 K) [kg/m3] | speed of sound ([1]; 328.15 K) [m/s] | mass density ([1]; 328.15 K) [kg/m3] | speed of sound ([1]; 333.15 K) [m/s] | mass density ([1]; 333.15 K) [kg/m3] | speed of sound ([2]; 293.15 K) [m/s] | speed of sound ([2]; 298.15 K) [m/s] | speed of sound ([2]; 303.15 K) [m/s] | speed of sound ([2]; 308.15 K) [m/s] | speed of sound ([2]; 313.15 K) [m/s] | speed of sound ([2]; 318.15 K) [m/s] | speed of sound ([2]; 323.15 K) [m/s] | speed of sound ([2]; 328.15 K) [m/s] | speed of sound ([2]; 333.15 K) [m/s] | speed of sound ([2]; 338.15 K) [m/s] | speed of sound ([2]; 343.15 K) [m/s] | Compound
1528.9 ± 8 | 988 ± 1.7 | 1547.4 ± 8 | 985.7 ± 1.7 | 1551 ± 8 | 983.2 ± 1.7 | – | – | – | – | – | – | – | – | – | – | – | O [water] + CCC(=O)[O-].C[NH2+]CCO
– | – | – | – | – | – | 1656.9 ± 8.1 | 1638.4 ± 8.1 | 1624.6 ± 8.1 | 1607 ± 8.1 | 1588.5 ± 8.1 | 1573.2 ± 8.1 | 1558.3 ± 8.1 | 1543.7 ± 8.1 | 1527 ± 8.1 | 1507.1 ± 8.1 | 1492.6 ± 8.1 | CCC(=O)[O-].C[NH2+]CCO [2-hydroxy-N-methylethanaminium propionate]
